The structures appear in SMILES notation. Several values for one entry are separate records, joined by “and”; a condition that tells them apart may be missing. Equal values may be shown once.

One experiment has as its system RIPK1. The experiment can be described thus: Western blot of pRIPK1 (S166) in TSZ-treated HT29 cells. It counts as cell-based, human. The conditions noted are these: Nec-1s 10 µM, Fer-1 1 µM, Nec-1f 10 µM. How it is done: To induce necroptosis in a human cell line, HT29 cells were stimulated at the indicated time points with 20 ng/ml human TNFα (Biolegend), 1 μM SMAC-mimetics (Birinapant, Chemietek), and 20 μM zVAD-fmk (Selleckchem, herein referred to as zVAD). For the induction of necroptosis in NIH3T3 cells, cells were incubated with 20 ng/ml TNF-α and 20 μM zVAD for indicated time points. […] Cells were seeded in six-well plates or petri dishes. […] After indicated time points, cells were collected and prepared for flow cytometry, immunoblotting, and/or LDH release assays.
Cells were lysed in ice-cold 10 mM Tris-HCl, pH 7.5, 50 mM NaCl, 1% Triton X-100, 30 mM sodium pyrophosphate, 50 mM NaF, 100 μM Na3VO4, 2 μM ZnCl2, and 1 mM phenylmethylsulfonyl fluoride (PMSF, modified Frackelton buffer) for 30 min on ice. Insoluble material was removed by centrifugation (14 000×g, 30 min, 4 °C). Protein concentration was determined using a commercial Bradford assay kit according to the manufacturer’s instructions (Thermo Fisher). Equal amounts of protein (typically 30 μg per lane) were resolved on a 4%−15% gradient SDS/PAGE gel and transferred to a PVDF membrane (BIO-RAD). Primary antibody incubation was performed for anti-pS166-RIPK1 (Cell Signaling, Cat# 65746, 1:1000 dilution), anti-pS358-MLKL, (Abcam, ab187091, 1:1000 dilution), anti-MLKL (Genetex, GTX107538, 1:1000 dilution) and anti-β-Actin (Cell Signaling, Cat# 3700S, 1:1000 dilution). Secondary antibodies (anti-mouse, HRP-linked antibody, Cell Signaling, Cat# 7076S; anti-rabbit, HRP-linked antibody, Cell Signaling, Cat# 7074S) were applied at concentrations of 1:5.000 (also see Supplementary Table 1 for details). Proteins were then visualized by enhanced chemiluminescence (ECL; Amersham Biosciences).

The next experiment relates to HT1080 cells. The experiment can be described thus: Ferroptosis inducers (FINs)/ferroptocide, 7-AAD/annexin V flow cytometry. It counts as cell-based, human. The note with it: Nec-1s 30 µM, Nec-1f 30 µM; for double-negative events (7-AAD/annexin V): alone (DMSO) or with Fer-1 1 µM. A general note: A flow cytometer gives signals particle by particle.

On to `CCOC(=O)c1ccc(NC2CCCCC2)c(N)c1` [Fer-1, ferrostatin-1], for which the “Phosphorylation of RIPK1 at S166, western blot” value with RIPK1 was “RIPK1 S166 phorphorylation was increased”. For the same molecule, the “double-negative events (7-AAD/annexin V)” value in the experiment with HT1080 cells (HT1080, 1.13 µM RSL3 6 h) was 92.2% and 77.7% and 91.5% and 91%; with HT1080 cells (HT1080, 5 µM erastin 24 h), 91.8% and 92.7%; in the experiment on HT1080 cells (HT1080, 10 µM FIN56 24 h) it was 88.3% and 93.1% and 90%; in the experiment with HT1080 cells (HT1080, 10 µM FINO2 24 h), 90.8% and 87.7% and 89.4%; with HT1080 cells (HT1080, 10 µM ferroptocide 24 h) it was 71.3% and 77%. Further, in the experiment on HT1080 cells (HT1080, Fer-1 1 µM), the “Inhibition of cell death induction by FINs/ferroptocide” value was “inhibition of cell death induction”.

These data come from paper PMC8292346, “Dysfunction of the key ferroptosis-surveilling systems hypersensitizes mice to tubular necrosis during acute kidney injury” (Nature Communications, 2021).
